The text below walks through data of PMC10544575, “Inhibitory mechanism of vortioxetine on CYP450 enzymes in human and rat liver microsomes” (Frontiers in Pharmacology, 2023).

Data set [1] addresses T1, CYP2B6 (Homo sapiens, UniProt P20813).
T1 sequence (P20813 1-491): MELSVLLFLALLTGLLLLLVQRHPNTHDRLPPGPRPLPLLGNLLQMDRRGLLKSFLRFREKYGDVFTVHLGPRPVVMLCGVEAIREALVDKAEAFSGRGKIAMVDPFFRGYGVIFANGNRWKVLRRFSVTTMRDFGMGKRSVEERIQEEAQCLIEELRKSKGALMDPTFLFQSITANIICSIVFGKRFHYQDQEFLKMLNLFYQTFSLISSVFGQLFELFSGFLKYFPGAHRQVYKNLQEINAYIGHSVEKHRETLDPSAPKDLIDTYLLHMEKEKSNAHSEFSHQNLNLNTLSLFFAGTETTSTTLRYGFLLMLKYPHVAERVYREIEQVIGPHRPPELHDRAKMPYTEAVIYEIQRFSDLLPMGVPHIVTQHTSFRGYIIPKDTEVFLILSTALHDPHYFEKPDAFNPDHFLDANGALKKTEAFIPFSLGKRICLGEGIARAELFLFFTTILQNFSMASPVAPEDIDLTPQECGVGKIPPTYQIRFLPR
Put plainly: IC50-shift experiment, CYP2B6 in HLMs. In kind it is in vitro ADME. Also noted: 0.20 mg/mL HLMs or 0.20 mg/mL RLMs; from tissue; host or cells: human liver microsomes. The conditions noted are these: for IC50: bupropion 40 μM. How it is done:
(§1) The components of the incubation system were as follows: 0.20 mg/mL HLMs or 0.20 mg/mL RLMs, 0.1 M Tris-HCl, vortioxetine, and the probe substrates of each enzyme. In the study of Km’s (Michaelis–Menten constant) experiment, midazolam (1, 2, 5, 10, 20, 50 and 100 μM in HLMs and RLMs) corresponded to CYP3A4/3A; bupropion (10, 20, 50, 100, 200, 500, 1,000 and 2000 μM in HLMs; 1, 2, 5, 10, 20, 50, 100 and 200 μM in RLMs) corresponded to CYP2B6/2B; amodiaquine (5, 10, 20, 50, 100 and 200 μM in HLMs; 10, 20, 50, 100, 200, 500 μM in RLMs) corresponded to CYP2C8/CYP2C-1; losartan (1, 2, 5, 10, 20, 50, 100, 200 μM in HLMs; 10, 20, 50, 100, 200, 500 and 1,000 μM in RLMs) corresponded to CYP2C9/CYP2C-2; mephenytoin (20, 50, 100, 200, 500 and 1,000 μM in HLMs; 5, 10, 20, 50, 100, 200, 500 and 1,000 μM in RLMs) corresponded to CYP2C19/CYP2C-3; and dextromethorphan (1, 2, 5, 10, 20, 50 and 100 μM in HLMs and RLMs) corresponded to CYP2D6/CYP2D. After 5.0 min of preincubation in the shaking water bath, the reaction was started with the addition of 1.0 mM NADPH. The incubated temperature at 37°C for 30 min. After the incubation, the enzyme reaction was stopped by cooling at −80°C, and 200 μL of acetonitrile and 20 μL of internal standard diazepam (200 ng/mL) were added for protein precipitation. […]
(§2) IC50-shift was used to investigate whether the drug produced time-dependent inhibition (TDI) of the enzyme. […] During the experiment, the individual substrates midazolam (4 μM), bupropion (40 μM), amodiaquine (3 μM), losartan (8 μM), mephenytoin (90 μM), and dextromethorphan (10 μM) were determined with vortioxetine IC50-shift in HLMs. […]
(§3) All experiments results were detected by UPLC-MS/MS, which equipped with a Waters Acquity UPLC system (Milford, MA, United States) and a Waters Xevo TQ-S triple quadrupole tandem mass spectrometer with an electrospray ionization source (Milford, MA, United States). […]
(§4) IC50 values and enzyme kinetic parameters were calculated by Graphpad Prism 6.0 (GraphPad software Inc., CA, United States). […] Data for each experiment were expressed as mean ± SD (n = 3).

The target in data set [2] is CYP2D6 (Homo sapiens, UniProt P10635). Put plainly: IC50-shift experiment, CYP2D6 in HLMs. In kind it is in vitro ADME. The arrangement: 0.20 mg/mL HLMs or 0.20 mg/mL RLMs; from tissue; host or cells: human liver microsomes. The conditions noted are these: for IC50: dextromethorphan 10 μM. As for the experimental part: as §1, §2, §3, §4
Where [3] appears, read: 30 min preincubation with 1.0 mM NADPH.
The mark [4] stands for this setting: 30 min preincubation without NADPH.

Molecules are shown by their SMILES.

CYP2D6, sequence (P10635 whole entry): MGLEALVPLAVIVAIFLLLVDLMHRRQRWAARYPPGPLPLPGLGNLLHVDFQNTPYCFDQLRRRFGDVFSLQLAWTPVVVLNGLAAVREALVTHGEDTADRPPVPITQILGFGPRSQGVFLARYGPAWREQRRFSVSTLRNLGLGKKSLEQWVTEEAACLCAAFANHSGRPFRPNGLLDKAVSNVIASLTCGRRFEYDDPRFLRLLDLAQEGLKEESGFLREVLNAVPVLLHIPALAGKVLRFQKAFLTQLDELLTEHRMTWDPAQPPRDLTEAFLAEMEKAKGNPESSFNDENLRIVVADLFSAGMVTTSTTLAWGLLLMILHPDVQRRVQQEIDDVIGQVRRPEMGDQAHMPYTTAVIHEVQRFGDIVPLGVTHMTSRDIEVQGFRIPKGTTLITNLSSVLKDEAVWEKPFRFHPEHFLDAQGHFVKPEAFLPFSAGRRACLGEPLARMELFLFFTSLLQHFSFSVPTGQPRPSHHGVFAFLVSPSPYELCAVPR

Take `Cc1ccc(Sc2ccccc2N2CCNCC2)c(C)c1` [vortioxetine]: the IC50 in data set [1] (setting [3]) came out at 6.69 µM; in data set [1] (setting [4]), 5.38 µM; in data set [2] (setting [3]), 18.4 µM; in data set [2] (setting [4]), 19.4 µM. In addition, the IC50 shift at 30 min in data set [1] (human, human liver microsomes, probe bupropion (40 μM), ratio IC50 (−) NADPH to IC50 (+) NADPH, read-out: IC50 fold shift) came out at 0.8; in data set [2] (human, human liver microsomes, probe dextromethorphan (10 μM), ratio IC50 (−) NADPH to IC50 (+) NADPH, read-out: IC50 fold shift), 1.06.
